Laboratory results reported in patent publication EP0437336B1, “Biophosphoryl hydrazines and their use as pesticides” (priority 1990, dated 1991).
Converted amounts (≈) assume the structure as drawn. Where two headings read alike, the source gives them in different places.

What was measured:
Southern Armyworm [1] = experiment: Biological Method D: Foliar Insecticidal Activity Test, Southern Armyworm test; format: in vivo, Spodoptera eridania; parameters: key: I = inactive at concentration tested; conditions: compounds a-r
Procedure: (§1) Biological Method D: Foliar Insecticidal Activity Test
(§2) In evaluating the foliar insecticidal activity of the compounds of this invention against insects and mites, the following test procedures were employed.
(§3) Not all compounds were tested at each of the several concentrations stated above. Test concentrations of a compound were selected as those most likely to differentiate dose response of a particular compound toward a particular test insect.
(§4) Initial evaluations were made on one or more of the following pests:
(§5) For the Mexican Bean Beetle and Southern armyworm tests, individual lima bean (Phaseolus limeniss var. Woods' Prolific) leaves were placed on moistened pieces of filter paper in Petri dishes. The leaves were then sprayed with the test solution using a rotating turntable and allowed to dry. The dishes were then infested with 10 third instar larvae of either the Mexican Been Beetle or the Southern Armyworm. The dishes were then covered. Percent mortality was determined for each species and spray concentration at 48 and 96 hours after treatment.
(§6) The mortalities obtained in this manner were plotted on logarithmic probability paper.
(§7) The rotating turntable consists of a fixed, continuously operating spray nozzle under which targets are rotated at a fixed speed and distance. If the target is a Petri dish (such as for the bean beetle, armyworm, mite, or aphid tests), the distance from the nozzle is 38.1 cm (15 inches). If the target is a Mason jar (such as for the boll weevil test), the distance from the nozzle is 17.8 cm (7 inches). The nozzle is located 8 inches from the rotating shaft. The targets on individual platforms revolve around the shaft at 1 revolution per 20 seconds but only a brief portion of this time occurs in the spray path. Targets pass only once under the nozzle and then are removed to drying hoods.
(§8) The nozzle used is a 1/4 JCO Spraying Systems (Wheaton, Illinois) air atomizing nozzle equipped with a No. 2850 fluid cap and a No. 70 air cap. At the 68.95 x 10³ Pa gauge (10 psig) air pressure used and with liquid siphon feed, 1.89 ℓ/hr [0.5 GPH (gallons per hour)] are delivered in a round spray pattern with a 21 degree spray angle. Targets are misted with spray droplets to the point that the droplets coalesce to form a uniform thin film insufficient to drown test organisms.

Boll Weevil [2] = experiment: Biological Method D: Foliar Insecticidal Activity Test, boll weevil test; format: in vivo, Anthonomous grandis; parameters: key: I = inactive at concentration tested; conditions: compounds a-r
Procedure: as §1, §2, §3, §4
For the boll weevil test, 10 adult weevils were placed in a 0.24 ℓ (0.5 pint) glass Mason jar containing a small cube of apple. The weevils were confined to the jar by fiberglass screen mesh secured by a screw-type rim cap. The jars were then sprayed with the test solution using a rotating turntable; directing the spray through the mesh into the jar. The percentage killed was determined after forty-eight and ninety six hours.
as §6, §7, §8

Mexican Bean Beetle = experiment: Biological Method D: Foliar Insecticidal Activity Test, Mexican Bean Beetle test; format: in vivo, Epilachna varivestis; conditions: Epilachna varivestis, foliar, Mexican Bean Beetle, compounds a-r
Green Peach Aphid [3] = experiment: Biological Method D: Foliar Insecticidal Activity Test, aphid test; format: in vivo, Myzus persicae; parameters: key: I = inactive at concentration tested; conditions: compounds a-r
Procedure: as §1, §2, §3, §4
(§9) For the aphid test, infested broccoli (Brassica oleracea italica var. DiCicco) leaves containing about 50 aphids were placed in a Petri dish lid on a moistened piece of cotton. The leaves were then sprayed to thorough wetness with the test solution using a rotating turntable, held for twenty-four hours and then the percentage killed was determined.
as §6, §7, §8

Two-Spotted Spider Mite = experiment: Biological Method D: Foliar Insecticidal Activity Test, mite test; format: in vivo, Tetranychus urticae; conditions: Tetranychus urticae, foliar; Two-Spotted Spider Mite; compounds a-r; read-out: LC 50 TSM
Green Peach Aphid [4] = experiment: Biological Method D: Foliar Insecticidal Activity Test, aphid test; format: in vivo, Myzus persicae; conditions: Myzus persicae, foliar; Green Peach Aphid; compounds a-r
Procedure: as §1, §2, §3, §4, §9, §6, §7, §8

Boll Weevil [5] = experiment: Biological Method D: Foliar Insecticidal Activity Test, boll weevil test; format: in vivo, Anthonomous grandis; conditions: Boll Weevil, compounds a-r
Southern Armyworm [6] = experiment: Biological Method D: Foliar Insecticidal Activity Test, Southern Armyworm test; format: in vivo, Spodoptera eridania; conditions: Spodoptera eridania, foliar, Southern Armyworm, compounds a-r
Procedure: as §1, §2, §3, §4, §5, §6, §7, §8

[7] = 48 hrs, read-out: LC 50 BB 48 hrs.
[8] = 96 hrs, read-out: LC 50 BB 96 hrs.
[9] = 48 hrs, read-out: LC 50 AW 48 hrs.
[10] = 96 hrs, read-out: LC 50 AW 96 hrs.

Row | Compound | LC50 AW 48 hrs (Southern Armyworm [1]) | LC50 AW 96 hrs (Southern Armyworm [1]) | LC50 BW 48 hrs (Boll Weevil [2]) | LC50 BW 96 hrs (Boll Weevil [2]) | LC50 (Mexican Bean Beetle; [7]) [µg/mL] | LC50 (Mexican Bean Beetle; [8]) [µg/mL] | LC50 GPA (Green Peach Aphid [3]) | LC50 (Two-Spotted Spider Mite) [µg/mL] | LC50 (Green Peach Aphid [4]) [µg/mL] | LC50 BW 48 hrs (Boll Weevil [5]) [ppm] | LC50 BW 96 hrs (Boll Weevil [5]) [ppm] | LC50 (Southern Armyworm [6]; [9]) [µg/mL] | LC50 (Southern Armyworm [6]; [10]) [µg/mL]
1 | CCCOP(=S)(NN(C)P(=S)(OCC)OCC)OCCC [d] | I | I | I | I | 150 (≈ 396 µM) | 150 (≈ 396 µM) | I | 150 (≈ 396 µM) | – | – | – | – | –
2 | CCOP(=S)(OCC)N(C)N(C)P(=S)(OCC)OC(C)C (centres unmarked) [b, N-(O,O-diethylthiophosphoryl) N′-(O-ethyl O-isopropylthiophosphoryl) N,N′-dimethyl hydrazine] | I | I | – | – | 150 (≈ 396 µM) | 150 (≈ 396 µM) | – | 5.5 (≈ 14.5 µM) | 36 (≈ 95.1 µM) | 740 | 150 | – | –
3 | CCOP(=O)(SC(C)CC)N(C)NP(=S)(OCC)OCC(C)(C)C (centres unmarked) [k] | I | I | I | I | – | 52 (≈ 124 µM) | – | – | 300 (≈ 713 µM) | – | – | – | –
4 | CCOP(=S)(NN(C)P(=S)(OCC)OCC)OCC(C)(C)C (centres unmarked) [j] | I | I | I | I | – | – | I | – | – | – | – | – | –
5 | CCOP(=S)(NN(C(=O)OC)P(=S)(OCC)OCC)OCC [o] | I | I | I | – | 52 (≈ 132 µM) | 45 (≈ 114 µM) | I | 150 (≈ 380 µM) | – | – | 740 | – | –
6 | CCOP(=S)(NN(C)P(=S)(OCC)OCC)OCC [a, N,N′-bis-(O,O-diethylthiophosphoryl) N-methyl hydrazine] | – | – | I | I | 500 (≈ 1430 µM) | 420 (≈ 1200 µM) | – | 150 (≈ 428 µM) | 150 (≈ 428 µM) | – | – | 150 (≈ 428 µM) | 150 (≈ 428 µM)
7 | CCOP(=S)(NN(C)P(=S)(OC)OC)OCC(C)(C)C (centres unmarked) [r] | I | I | – | – | – | – | I | – | – | – | – | – | –
8 | CCOP(=O)(SC(C)CC)N(C)N(C)P(=S)(OC)OC (centres unmarked) [m] | I | I | – | – | 600 (≈ 1650 µM) | 38 (≈ 104 µM) | I | 150 (≈ 412 µM) | – | 740 | 740 | – | –
9 | CCCOP(=S)(NN(C)P(=S)(OCC)OCC)OCC (centres unmarked) [c, N-(O,O-diethylthiophosphoryl) N′-(O-ethyl O-propylthiophosphoryl) N-methyl hydrazine] | – | – | I | I | 150 (≈ 412 µM) | 150 (≈ 412 µM) | – | 150 (≈ 412 µM) | 290 (≈ 796 µM) | – | – | 150 (≈ 412 µM) | 150 (≈ 412 µM)
